Test results published in patent US5196577A, “Compound marked with tritium, its preparation and its use in particular in the determination of the affinity of retinoids for their nuclear receptors and their cytosolic binding protein” (Centre International de Recherches Dermatologiques, priority 1988, dated 1993).
Entries after “also recorded” stand apart in the source; their conditions may differ. Read-outs that look alike come from different tables or passages of the source.

Experiments:
[1] = test system: retinoic acid nuclear receptors (RARs); assay: Direct fixing of tritiated ligand on RARs of F9 cells (HPSEC of nucleosol); type: binding, murine; conditions: 200 nM tritiated ligand; for ligand fixed to the RARs per cell: FIG. 2; for specific fixing on RARs in presence of excess cold homolog ligand: 100-fold excess (20000 nM) cold ligand, FIG. 1
Experimental: (§1) Cultures of F9 cells of murin embryonic carcinoma (normally four 90 mm dishes containing in total 2-4×10^7 cells per incubation condition) were washed once with PBS (saline phosphate buffer) and incubated for 3 hours in a medium, without serum, supplemented with the marked retinoid in the absence or the presence of a cold retinoid homolog or heterolog (to verify the specificity and for comparison experiments). The cells were then detached with a trypsin EDTA mixture and numbered with a Burker hemocytometer. The nucleosol containing RARs was extracted from the purified nuclei using the method described by Daly and Redfern (1987) (that is, after treatment using DNAase and NaCl 0.6M), and analyzed using high performance exclusion chromatography (HPSEC). 50 μl of marked extract were injected on a 9×250 mm GF250 column (Dupont de Nemours). The elution was carried out in a buffer 0.3M KH2 PO4 pH 7.8 at a rate of 1 ml/min. The protein content was followed by measuring the optical density at 280 nm. 28 fractions of 0.3 ml each were collected and counted in Picofluor (Packard) scintillating agent. For each retinoid concentration, the number of bonded molecules was determined using the surface of the radioactivity peak and the calculated concentration of demi-saturation (C50). […] The dose-response curves and the competition curves were analyzed on a computer through non-linear regression using the various forms of the Clark equation.
When the above-describe method is used and the F9 cells are incubated with the compound of example 1 at a concentration of 200 nM, a single radioactivity peak is observed in the nuclear extract (FIG. 1B). The molecular weight corresponding to the average fraction of the peak is approximately 45 kDa, a number close to the molecular weight of human RARs, as has been calculated from the sequence of their DNAc (Petkovich et al, 1987; Brand et al, 1988), and is compatible with the 4S sedimentation coefficient of murin receptors (Daly & Redfer, 1987). The fixing is specific since it is abolished when the cells are coincubated with an excess of 100 times of the cold compound I (FIG. 1B). There is no CRABP in the nucleosoilc extract of F9, as already underlined by Daly and Redfern (1987).
It can be noted that the radioactive peak elutes at the same position as with the compound of example 1.
The two compounds were used at a concentration of 200 nM. The quantity of ligand bonded to the RARs is expressed in molecules per cell.
To determine the concentration of the compound of example 1 giving 50% saturation of the RARs (C50), a saturation curve has been traced expressing the surface of the radioactive peak as a function of varied concentrations of the compound of example 1. The C50 is between 0.5 and 2 nM.

[2] = Stability of ligand (general statements); type: physicochemical; conditions: statement in words, no data
[3] = molecular target: T1, CRABP (Rattus norvegicus, UniProt P62966); assay: Direct fixing (saturation) of tritiated ligand on CRABP in rat testicle cytosol; type: binding; conditions: for non-specific fixing as part of total fixing on CRABP: 1 μM cold homolog ligand; for concentration of CRABP in rat testicle cytosol found with the marked retinoid: saturating concentration of marked retinoid
T1 construct: rat testicle cytosol containing CRABP; from tissue
T1 sequence (P62966 whole entry): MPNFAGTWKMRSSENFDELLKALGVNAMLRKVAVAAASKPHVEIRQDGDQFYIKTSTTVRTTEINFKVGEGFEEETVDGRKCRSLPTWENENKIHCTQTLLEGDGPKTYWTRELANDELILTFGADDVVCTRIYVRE
Experimental: The difference (- ) represents the specific bond.
The total fixing (non-specific+specific (1-1) is obtained by incubation of increasing concentrations (up to a maximum of 125 nM) of the claimed compound with a constant quantity (0.3 ml) of a rat testicle homogenate (CRABP-rich organ). The non-specific fixing of the tritiated compound is determined in parallel, by measuring the fixing with increasing concentrations of the radioactive ligand in the presence of a large excess (1 μM) of cold homolog ligand (.quadrature.-.quadrature.). An incubation time of two hours is necessary for the establishment of balanced conditions.
Once the balance is achieved, the tritiated CRABP-ligand complex is separated from the non-bonded ligand by filtration on a Sephadex G25 exclusion gel column (BIO-Rad econo columns, 0.5× 20 cm): the complex is eluted (elution peak at 2.5 ml), while the non-bonded ligand is retained in totality on the column. […] The elution is done directly in scintillation tubes and the radioactivity is measured by counting.
The difference between the total fixing curve (- )and the non-specific fixing curve (.quadrature.-.quadrature.) gives the specific fixing curve ( - ). Analysis of this curve provides the dissociation constant with the balance (Kd), which is the concentration of product necessary to saturate 50% of the CRABP. This constant is a measurement of the affinity of the ligand for its binding protein, with the Kd being inversely proportional to the affinity (the lower the Kd, the greater the affinity).
The concentration of CRABP in the rat testicle cytosol used for the experiment can be determined in binding experiments where the marked retinoids are used at a saturating concentration.

[4] = test system: F9 cells; assay: Production of secreted plasminogen activator by differentiating F9 cells (biological activity, CPA50); type: cell-based, murine; conditions: for EC50: Mus musculus, read-out: BIOLOGICAL ACTIVITY CPA50
From the text: The biological activity of the retinoids can be measured on the F9 cells by quantifying the production of the plasminogen activator secreted consecutively with the differentiation of said cells, caused by the retinoids. CPA50 is the concentration of retinoids causing an induction of 50% of the maximum of the secreted plasminogen activator. By comparing the IC50 and CPA50 values on Table 1, it can be noted that there is an excellent correlation between the affinity of the retinoids for the RARs and their biological activity (see also the straight regression line of FIG. 4). The only exception is retinoic acid itself. […] In effect, the IC50 measurement is carried out after an incubation of 3 hours, while the CPA50 measurement is carried out after a incubation of 3 days.

[5] = test system: retinoic acid nuclear receptors (RARs); assay: Competition with the tritiated compound of example 1 for RARs in F9 cells (HPSEC of nucleosol); type: binding, murine; conditions: for IC50: competition with 2 nM tritiated compound of example 1, incubation of 3 hours, read-out: AFFINITY RARs:IC50
Experimental: as §1
In view of its stability and its excellent affinity for the RARs, the compound of example 1 in principle enables the determination by competition of the affinity of no matter which retinoid for the RARs.
The […] profiles are obtained after incubation of the F9 cells with 2×10^-9 M of the compound of example 1 in the absence (- ) or in the presence of 10^-9 M(.quadrature.-.quadrature.), 10^-8 M (- ), 10^-7 M (Δ-Δ), 10^-6 M (- ) of cold competitors. I=the unmarked compound of example 1. RA=retinoic acid. For each competition concentration, the peak surface is expressed as a percentage of the surface obtained with the compound of example 1 without competition.
By measuring the surface of the radioactive peak for each concentration of cold competition, it is possible to trace the competition sigmoids. Data processing of these curves enables the determination of the IC50 (50% inhibiting concentration) of each retinoid.

[6] = molecular target: T1, CRABP; assay: Competition with the claimed marked compound for CRABP; type: binding
Experimental: These competition experiments are carried out in the following manner: a fixed quantity of radioactive ligand (corresponding substantially to the demi-saturation, in our case 4 nM) is mixed with increasing quantities of cold ligand (non-radioactive). Then the binding protein is added and the quantity of radioactive ligand fixed to the balance is determined (in % of the initial fixing in the absence of cold ligand, for the quantity of CRABP under consideration).
From the competition curves, the IC50 (concentration of cold ligand reducing the attachment of the tritiated ligand by 50%) is determined. This IC50 value enables the calculation in each case of the dissociation constant from the balance (Kd) for the cold ligand.

[7] = by radiolysis, oxidation and photolysis; background statement; cited from earlier work
[8] = 72 h, concentration causing induction of 50% of the maximum of secreted plasminogen activator, F9 cells, incubation of 3 days
[9] = Table 1, Kd calculated from competition IC50, radioligand about 4 nM, read-out: AFFINITY CRABP:Kd

| EC50 [4, 8] | Kd [6, 9] | SMILES | IC50 ([5]; F9 cells) | EC50 ([4]; F9, 72 h) | Kd [6] | further results |
| --- | --- | --- | --- | --- | --- | --- |
|  |  | CC1(C)CCC(C)(C)c2cc3cc(-c4ccc(C(=O)O)cc4)ccc3cc21 [Example 1, 4-(5,6,7,8-tetrahydro-5,5,8,8-tetramethyl-2-anthracenyl) benzoic acid marked with tritium] |  |  |  | ligand fixed to the RARs per cell [1]: approximately 4,000 molecules per cell; stability of the ligand [2]: very stable; character of non-specific fixing on CRABP ([3]; in the range of concentrations used, rat testicle): linear and non-saturable; character of specific fixing on CRABP ([3]; rat testicle): saturable and reversible; non-specific fixing as part of total fixing on CRABP ([3]; rat testicle): less than 10%; concentration of CRABP in rat testicle cytosol found with the marked retinoid [3]: 10-12 pmol/mg protein |
|  |  | CC1(C)CCC(C)(C)c2cc(-c3cc4ccc(C(=O)O)cc4s3)ccc21 [Compound IV, 2(5,6,7,8-tetrahydro-5,5,8,8-tetramethyl-2-naphthyl)-6-benzo(b)thiophene carboxylic acid] | 77 nM | 53 nM | 2 nM |  |
| 1 nM | 4 nM | CC1(C)CCC(C)(C)c2cc3cc(-c4ccc(C(=O)O)cc4)ccc3cc21 [Compound I, 4-(5,6,7,8-tetrahydro-5,5,8,8-tetramethyl-2-anthracenyl) benzoic acid] | 0.8 nM |  |  | affinity for the RARs relative to retinoic acid ([5]; from IC50 of Table 1): six times; specific fixing on RARs in presence of excess cold homolog ligand [1]: abolished |
|  |  | Cc1c(C(=O)O)cc(S)c2cc(-c3ccc4c(c3)C(C)(C)CCC4(C)C)ccc12 [Compound VIII, 1methyl-4-thiol-6-(5,6,7,8-tetrahydro-5,5,8,8-tetramethyl-2-naphthyl)-2-nphthoic acid] | > 10000 nM | > 10000 nM | 200 nM | biological activity (in words) ([4]; F9 cells, FIG. 4): biologically inactive; also recorded: below the threshold of detection; affinity for the RARs (in words) ([5]; F9 cells, FIG. 4): below the threshold of detection |
| 2500 nM | 600 nM | CC1=C(/C=C/C(C)=C/C=C/C(C)=C/CO)C(C)(C)CCC1 [Retinol] | 1400 nM |  |  |  |
|  |  | CC1=C(/C=C/C(C)=C/C=C/C(C)=C/C(=O)O)C(C)(C)CCC1 [Retinoic acid] | 5 nM | 350 nM |  | specific fixing on RARs in presence of excess cold homolog ligand [1]: the peak is not observed; ligand fixed to the RARs per cell [1]: approximately 4,000 molecules per cell; stability of the ligand [2]: high instability; non-specific fixing as part of total fixing on CRABP ([3]; rat testicle): approximately 25%; concentration of CRABP in rat testicle cytosol found with the marked retinoid [3]: 10-12 pmol/mg protein; degradation of retinoic acid [7]: rapidly degraded |
|  |  | CC1(C)CCC(C)(C)c2cc(-c3cc4ccc(C(=O)O)cc4o3)ccc21 [Compound VI, 2(5,6,7,8-tetrahydro-5,5,8,8-tetramethyl-2-naphthyl)-6 benzo(b)furan carboxylic acid] | 770 nM | 670 nM | 200 nM |  |
| 85 nM | 200 nM | CC1(C)CCC(C)(C)c2cc(C(=O)Nc3ccc(C(=O)O)cc3)ccc21 [Compound VII, 4(5,6,7,8-tetrahydro-5,5,8,8-tetramethyl-2-naphthamido) benzoic acid] | 76 nM |  |  |  |

| SMILES | EC50 [4, 8] | Kd [6, 9] | IC50 ([5]; F9 cells) | EC50 ([4]; F9, 72 h) | Kd [6] | further results |
| --- | --- | --- | --- | --- | --- | --- |
| CC1(C)CCC(C)(C)c2cc(-c3ccc4cc(C(=O)O)ccc4c3)ccc21 [Compound V, 6(5,6,7,8-tetrahydro-5,5,8,8-tetramethyl-2-naphthyl)-2-naphthoic acid] | 66 nM | 20 nM | 12 nM |  |  |  |
